Measured values from US20250049860A1, “METHOD FOR ISOLATING, MAINTAINING, PROLIFERATING, AND DIFFERENTIATING MONOCLONAL CELLS DERIVED FROM HUMAN SALIVARY GLAND EPITHELIAL STEM CELLS OR PROGENITOR CELLS AND PRODUCTION METHOD FOR EXTRACELLULAR VESICLES FOR TREATING SALIVARY GLAND DISEASES” (INDUSTRY-ACADEMIC COOPERATION FOUNDATION, YONSEI UNIVERSITY, priority 2021, published 2025).

Experiments:
Assay type in all cases: cell-based
[1] = system: human salivary gland epithelial cells; assay: Concentration screening of small molecule compounds and their combination in Dermacult (KEM); conditions: added in combination to KEM (Dermacult)
Protocol: Dermacult, which can stably culture human salivary gland epithelial cells in CDM, was used as the epithelial cell culture medium (keratinocyte expansion medium, KEM), and the small molecule compounds ROCK I/II inhibitor (Y-27632), TGF-beta pathway inhibitor (A83-01), and BMP pathway inhibitor (LDN193189) were added to determine the optimal concentrations at which cell characteristics were maintained and stable long-term culture was achieved, respectively (FIG. 3).
Finally, the combination experiments with different concentrations of the small molecule compounds confirmed that salivary gland epithelial cell growth was best maintained when Y-27632 10 μM, A83-01 1 μM, and LDN193189 0.1 μM were added to KEM (FIG. 4).

[2] = system: human salivary gland epithelial cells; assay: Small molecule compound combination check in K-SFM; conditions: for result of addition to the culture: various combinations of small molecule compounds
Description: Isoproterenol had no effect.

[3] = system: human salivary gland epithelial cells; assay: Addition of WNT during cell separation with initial SCM in K-SFM
Protocol: • (1) The cells were homogenized in 10 ml culture medium, spread evenly onto a 100×20 mm culture dish, and then incubated in an incubator at 37° C. and 5% CO2. In this case, the composition of each culture medium is as shown in Table 1. • (2) To perform the subfractionation culturing method (SCM) to isolate epithelial monoclonal cells, after 2 hours, the culture medium containing the cells was transferred to a new 100×20 mm culture dish. This procedure was repeated two more times. • (3) After 24 hours, the dish resulting from (2) was cultured, and the existing culture medium was removed every 2-3 days and replaced it with fresh culture medium. • (4) After confirming the formation of colonies, when the size of a cell cluster forming one colony exceeded 1 cm^2, the culture medium was removed, the cluster was marked with a hydrophobic pen, and the residual culture medium was removed using 1×PBS. 50 to 100 μL of TrypLE+Y27632 was added, and the cells were stored in an incubator at 37° C. and 5% CO2 environment for 15 minutes. • (5) Each cell population detached from the dish by TrypLE was added to a separate 1.5 ml tube, and 1 ml of culture medium was added. • (6) After centrifugation at 300 g for 5 minutes at 4° C., the supernatant was removed, and the cells were homogenized and spread in 250 μL of fresh culture medium into each well of a 48-well plate for each cell population. […]

Molecule | concentration at which salivary gland epithelial cell growth was best maintained [1] | result of addition to the culture [2] | also measured
Cc1cccc(-c2nn(C(=S)Nc3ccccc3)cc2-c2ccnc3ccccc23)n1 [A83-01] | 1 µM | universally good results | 
Cc1c[nH]c(-c2cnc(NCCNc3ccc(C#N)cn3)nc2-c2ccc(Cl)cc2Cl)n1 [Chir99021] |  | poor results | 
CC(C)Oc1ccc(-c2cnc3c(-c4ccnc5ccccc45)cnn3c2)cc1 [DMH-1] |  |  | concentration giving effects similar to Dermacult's YAL ([2]; LDN193189 replaced with DMH-1): 1 µM
CC(C)NCC(O)c1ccc(O)c(O)c1 (centres unmarked) [Isoproterenol] |  | no effect | 
c1ccc2c(-c3cnn4cc(-c5ccc(N6CCNCC6)cc5)cnc34)ccnc2c1 [LDN193189] | 0.1 µM |  | 
O=C(NOC[C@H](O)CO)c1ccc(F)c(F)c1Nc1ccc(I)cc1F [PD0325901] |  | poor results | 
C[C@@H](N)[C@H]1CC[C@H](C(=O)Nc2ccncc2)CC1 [Y-27632] | 10 µM | universally good results | 
WNT: growth factor WNT3A, Recombinant Human Wnt-3a Protein (protein, UniProt P56704 19-352, looked up) Protein Wnt-3a: SYPIWWSLAVGPQYSSLGSQPILCASIPGLVPKQLRFCRNYVEIMPSVAEGIKIGIQECQHQFRGRRWNCTTVHDSLAIFGPVLDKATRESAFVHAIASAGVAFAVTRSCAEGTAAICGCSSRHQGSPGKGWKWGGCSEDIEFGGMVSREFADARENRPDARSAMNRHNNEAGRQAIASHMHLKCKCHGLSGSCEVKTCWWSQPDFRAIGDFLKDKYDSASEMVVEKHRESRGWVETLRPRYTYFKVPTERDLVYYEASPNFCEPNPETGSFGTRDRTCNVSSHGIDGCDLLCCGRGHNARAERRREKCRCVFHWCCYVSCQECTRVYDVHTCK |  |  | effect on cell growth ([3]; initial addition): rapid cell growth; effect on cell morphology ([3]; prolonged addition): changed the morphology of the cells
